Structures can show the parent of a compound that is named as a salt. Where two headings read alike, the source gives them in different places.

Results on 46 molecules are retold here after patent US4699924A, “Skin treatment composition” (priority 1983, dated 1987).

A short description of data set [1]: Cloud point temperature of a 0.025M aqueous solution of polyoxyethylene(8)nonylphenyl ether with 5% by weight additive. It counts as physicochemical. As to conditions: for Effect on the cloud point temperature of nonionic surfactants: screening of non-electrolytes, in words. As to the method:
An activity enhancer is accordingly defined as a non-electrolyte which is capable, at a concentration of 5% by weight of increasing the cloud point temperature of a 0.025M aqueous solution of polyoxyethylene(8)nonylphenyl ether by at least 10° C. Preferably the activity enhancer is one which is capable of increasing the cloud point temperature by at least 15° C., most preferably by at least 20° C.
It should be explained that the "cloud point" is a measure of the inverse solubility of a nonionic surfactant with temperature and can be determined by heating a standard clear aqueous solution of the nonionic surfactant until the solution becomes visibly cloudy and then measuring the temperature.
The cloud point temperature can conveniently be determined automatically using the equipment and method described by Baum et al in Mat. Res. Std. 4 26 (1964).
Examples of suitable compounds functioning as activity enhancers, together with the respective elevated cloud point temperature obtained in each case when using the standard test defined hereinbefore are listed below in Table 1.

The subject of data set [2] is guinea pig foot pad stratum corneum. The data set is described as follows: Increase in extensibility of guinea pig foot pad stratum corneum. Also on record: Increase in stratum corneum extensibility: unit not given here. The settings on record: 0.2 M 2-hydroxyoctanoic acid + additive at 5% w/w; 3 hours at 20° C.; relative humidity 65%. As for the experimental part:
The ability of an additive to enhance the delivery to skin of 2-hydroxyoctanoic acid was measured in terms of the increase in extensibility of guinea pig foot pad stratum corneum following contact with each solution.
In this experiment, pieces of guinea pig foot pad stratum corneum, equilibrated at a relative humidity of 65%, were immersed in each solution for 3 hours at 20° C., and then removed, blotted dry and re-equilibrated at the same relative humidity. The extensibility of each piece of guinea pig foot pad stratum corneum was measured before and after this treatment in an extensiometer according to the method described in European Pat. No. 7785.

[3] abbreviates: Table 1, activity enhancer 5% by weight, 0.025 M polyoxyethylene(8)nonylphenyl ether.
The mark [4] stands for this setting: Table 1, activity enhancer 5% by weight, control 33.5 °C., in °C.
Setting [5] is: table of extensibility results, additive at 5% w/w, in °C.
[6] abbreviates: Table 2, compound which is not an activity enhancer, 5% by weight.
Where [7] appears, read: Table 2, compound which is not an activity enhancer, 5% by weight, control 33.5 °C.

For the molecule “4-methyl-6-(2,4,6-trimethyl-pentyl)-2-(1H)--pyridone”, the Log partition coefficient (octanol/water) is 1.28.
For the molecule `C1COCCO1` [1,4 Dioxane], the Cloud point temperature in data set [1] (setting [3]) turned out to be 44.0 °C. Moreover, the “Elevation of cloud point temperature” value in data set [1] (setting [4]) turned out to be 10.5.
Regarding `CC(O)C(=O)O` (stereo not drawn) [2-hydroxypropionic acid], the Cloud point temperature in data set [1] (setting [3]) worked out at 45.0 °C. For the same molecule, the “Elevation of cloud point temperature” value in data set [1] (setting [4]) and in data set [1] (setting [5]) was 11.5 each time. Further, in data set [2], the “Increase in stratum corneum extensibility” value (from here on “Increase”) is listed as 17.1.
In the case of `CC(C)CO` [2-methyl propan-1-ol], the Cloud point temperature in data set [1] (setting [6]) was determined as 41.0 °C. Further, the “Elevation of cloud point temperature” value in data set [1] (setting [7]) came to 7.5 °C.
`CC(C)(C)O` [2-methyl propan-2-ol]: the Cloud point temperature in data set [1] (setting [3]) is 55.0 °C. The “Elevation of cloud point temperature” value in data set [1] (setting [4]) was found to be 21.5.
As for `O=C1CCCN1` [2-pyrrolidone], the “Elevation of cloud point temperature” value in data set [1] (setting [5]) is listed as 15.5. For the same molecule, the “Increase” value in data set [2] was 28.0.
`CCC1OC(=O)C(C)C(OC2CC(C)(OC)C(O)C(C)O2)C(C)C(OC2OC(C)C(O)C(N(C)C)C2O)C(C)(O)CC(C)C(=O)C(C)C(O)C1(C)O` (stereo not drawn) [4'-hydroxyerythromycin] gave a Log partition coefficient (octanol/water) of 1.44.
The molecule `CCC1(c2ccccc2)C(=O)NC(=O)NC1=O` [5-ethyl-5-phenyl barbituric acid, reference compound] came in with a Log partition coefficient (octanol/water at 20° C.) of 1.42.
Regarding `CC(C)=O` [Acetone], the Cloud point temperature in data set [1] (setting [3]) came out at 46.3 °C. The “Elevation of cloud point temperature” value in data set [1] (setting [4]) came out at 12.8.
Consider `CC(O)CCO` (stereo not drawn) [Butan-1,3-diol], for which the Cloud point temperature in data set [1] (setting [6]) stood at 41.5 °C. The “Elevation of cloud point temperature” value in data set [1] (setting [7]) was 8.0 °C.
Consider `OCCCCO` [Butan-1,4-diol], for which, in data set [1] (setting [3]), the Cloud point temperature was 45.0 °C. Besides, the “Elevation of cloud point temperature” value in data set [1] (setting [4]) worked out at 11.5.
Regarding `CCCCO` [Butan-1-ol], the Cloud point temperature in data set [1] (setting [6]) amounted to 36.3 °C. Further, the “Elevation of cloud point temperature” value came to 2.8 °C in data set [1] (setting [7]) and 2.8 in data set [1] (setting [5]). In addition, the “Effect on the cloud point temperature of nonionic surfactants” value (shortened to “Effect on the cloud point temperature”) in data set [1] was “reduce the cloud point temperature”. In addition, the “Increase” value in data set [2] was 13.2.
`OC1CCCCC1` [Cyclohexanol]: in data set [1] (setting [6]), the Cloud point temperature stood at 11.0 °C. Besides, the “Elevation of cloud point temperature” value in data set [1] (setting [7]) is -22.5 °C. In addition, the “Effect on the cloud point temperature” value in data set [1] is “reduce the cloud point temperature”.
For the molecule `CC(O)COCC(C)O` (stereo not drawn) [Di(2-hydroxypropyl) ether], in data set [1] (setting [3]), the Cloud point temperature was 44.8 °C. Besides, the “Elevation of cloud point temperature” value in data set [1] (setting [4]) and in data set [1] (setting [5]) was 11.3 in each case. Also, the “Increase” value in data set [2] is given as 21.6.
Turning to `C[S+](C)[O-]` [Dimethyl sulphoxide], the Cloud point temperature in data set [1] (setting [6]) turned out to be 33.9 °C. The results for the “Elevation of cloud point temperature” value in data set [1] (setting [7]) and in data set [1] (setting [5]) were 0.4 °C and -0.5, respectively. The “Increase” value in data set [2] came out at 5.
In the case of `CCOC(=O)C(C)O` (stereo not drawn) [Ethyl-2hydroxypropanoate], in data set [1] (setting [3]), the Cloud point temperature is 52.1 °C. Moreover, the “Elevation of cloud point temperature” value in data set [1] (setting [4]) is 18.6.
Turning to `C1COCCN1` [Morpholine], the Cloud point temperature in data set [1] (setting [6]) stood at 40.0 °C. Further, the “Elevation of cloud point temperature” value in data set [1] (setting [7]) was 6.5 °C.
As to `CC(=O)Nc1ccccc1C(=O)O` [N--acetyl O--aminobenzoic acid], the Log partition coefficient (octanol/water at 20° C.) was 1.88.
Turning to `CCOCCOCCO` [POE(2) ethyl ether, polyoxyethylene(2) ethyl ether], the Cloud point temperature in data set [1] (setting [3]) is 46.0 °C. Moreover, the “Elevation of cloud point temperature” value in data set [1] (setting [4]) stood at 12.5.
On the same counts, the results for `COCCOCCO` [POE(2) methyl ether] are 43.5 °C and 10.0.
Taken in the same sequence, the figures for `CCCO` [Propan-1-ol] were 53.0 °C and 19.5.
On the same counts, the results for `CC(C)O` [Propan-2-ol] are 56.0 °C and 22.5.
Regarding `C1CCOC1` [Tetrahydrofuran], the Cloud point temperature in data set [1] (setting [3]) amounted to 45.0 °C. Further, the “Elevation of cloud point temperature” value in data set [1] (setting [4]) worked out at 11.5.
`CC(N)Cc1ccccc1` (stereo not drawn) [amphetamine, reference compound]: the Log partition coefficient (octanol/water at 20° C.) came to 1.63.
For `O=C(O)CCCCCCCC(=O)O` [azelaic acid, reference compound], the Log partition coefficient (octanol/water) is listed as 1.57.
On to `c1ccc2[nH]cnc2c1` [benzimidazole], for which the Log partition coefficient (octanol/water at 20° C.) was determined as 1.34.
With `CC1(C)S[C@@H]2[C@H](NC(=O)Cc3ccccc3)C(=O)N2[C@H]1C(=O)O` [benzyl pencillin, reference compound], the Log partition coefficient (octanol/water) was 1.83.
On the same count and under the same terms, the value for `CC[C@H]1OC(=O)[C@H](C)[C@@H](O[C@H]2C[C@@](C)(OC)[C@@H](O)[C@H](C)O2)[C@H](C)[C@@H](O[C@@H]2O[C@H](C)C[C@H](N(C)C)[C@H]2O)[C@](C)(O)C[C@@H](C)C(=O)[C@H](C)[C@@H](O)[C@]1(C)O` [erythromycin, reference compound] was 1.26.
The molecule `CCOC(=O)c1cccnc1` [ethyl nicotinate] showed a Log partition coefficient (octanol/water at 20° C.) of 1.32.
As to `O=C(O)c1cccc(O)c1` [m-hydroxybenzoic], the Log partition coefficient (octanol/water) is given as 1.50.
In the case of `Cc1cccc(S(N)(=O)=O)c1` [m-methylbenzene sulphonamide], the Log partition coefficient (octanol/water at 20° C.) worked out at 0.85.
Still for that read-out and setting: for `NS(=O)(=O)c1cccc([N+](=O)[O-])c1` [m-nitrobezene sulphonamide] the value was 0.55; for `NC(=O)c1cccnc1` [niacinamide, reference compound], 1.37; for `Oc1ccccc1O` [o-dihydroxybenzene], 0.80.
For the setting “octanol/water”, `Cc1ccccc1S(N)(=O)=O` [o-methylbenzene sulphonamide] returned a Log partition coefficient of 0.84.
`Nc1ccc(C(=O)O)cc1` [p-aminobenzoic acid, reference compound]: the Log partition coefficient (octanol/water) is listed as 0.68.
Still for that read-out and setting: the value for `Oc1ccc(O)cc1` [p-dihyroxybenzene] was 0.59.
For `Cc1ccc(S(N)(=O)=O)cc1` [p-methylbenzene sulphonamide], the Log partition coefficient (octanol/water at 20° C.) is 0.82.
Still for that read-out and setting: the value for `NS(=O)(=O)c1ccc([N+](=O)[O-])cc1` [p-nitrobenzene sulphonamide] was 0.64.
`CCN(CC)CCOC(=O)c1ccc(N)cc1` [procaine, reference compound] yielded a Log partition coefficient (octanol/water) of 1.87.
In the case of `O=C1NS(=O)(=O)c2ccccc21` [saccharin], where the note is “octanol/water”, the Log partition coefficient worked out at 0.91.
For the molecule `O=C(O)c1ccccc1O` [salicylic acid, reference compound], the Log partition coefficient (octanol/water at 20° C.) was 2.26.
`OC[C@@H](O)[C@@H](O)[C@H](O)[C@@H](O)CO` [sorbitol]: the “Effect on the cloud point temperature” value in data set [1] is “reduce the cloud point temperature”.
Turning to `O=C1C[C@@H]2OCC=C3CN4CC[C@]56c7ccccc7N1[C@H]5[C@H]2[C@H]3C[C@H]46` [strychnine], under “octanol/water”, the Log partition coefficient is 1.93.
Under “octanol/water at 20° C.”, `CCOC(=O)CC(O)(CC(=O)OCC)C(=O)OCC` [triethyl citrate] registered a Log partition coefficient of 0.67.
On the same count and under the same terms, the value for `CC1(C)SC2C(NC(=O)C(O)c3ccccc3)C(=O)N2C1C(=O)O` (stereo not drawn) [α-hydroxy benzyl penicillin] was 1.40.
